# Measurements reported in patent US10472358B2, “1H-pyrrolo[2,3-c]pyridin-7(6H)-ones and pyrazolo[3,4-c]pyridin-7(6H)-ones as inhibitors of BET proteins” (Incyte Corporation, priority 2014, dated 2019).
# Tested on: KMS.12.BM cells
# Assay: KMS.12.BM cell viability assay (Cell Titer-GLO, ATP quantitation)
# Format: cell-based
# Conditions: KMS-12-BM, 72 h; human myeloma cells, 3 days, concentration required for 50% cell death
# Protocol: Example B1: KMS.12.BM Cell Viability Assay
# KMS.12.BM cell line (human myeloma) was purchased from JCRB (Osaka, Japan) and maintained in RPMI with 10% FBS culture medium. To measure the cytotoxic activity of the compounds through ATP quantitation, the KMS.12.BM cells are plated in the RPMI culture medium at 5000 cells/well/per 100 μL into a 96-well polystyrene clear black tissue culture plate (Greiner-bio-one through VWR, NJ), in the presence or absence of a concentration range of test compounds. After 3 days, […] Cell Titer-GLO Luminescent (Promega, Madison, Wis.) cell culture agent is added to each well for 10 minutes at room temperature to stabilize the luminescent signal. This determines the number of viable cells in culture based on quantitation of the ATP present, which signals the presence of metabolically active cells. Luminescence is measured with the Top Count 384 (Packard Bioscience through Perkin Elmer, Boston, Mass.). Compound inhibition is determined relative to cells cultured with no drug and the IC50 is reported as the compound concentration required for 50% cell death.
row,SMILES,IC50 [µM]
1,"Cn1cc(-c2cccc3c2OC(C)(C)C(=O)N3)c2cc[nH]c2c1=O [Example 31, 2,2-dimethyl-8-(6-methyl-7-oxo-6,7-dihydro-1H-pyrrolo[2,3-c]pyridin-4-yl)-2H-1,4-benzoxazin-3(4H)-one]",≤ 1
2,"Cn1cc(-c2cccc3c2NC(C)(C)C(=O)N3)c2cc[nH]c2c1=O [Example 32, 3,3-dimethyl-5-(6-methyl-7-oxo-6,7-dihydro-1H-pyrrolo[2,3-c]pyridin-4-yl)-3,4-dihydroquinoxalin-2(1H)-one]",≤ 1
3,"CC(C)C1Oc2c(cc(C(=O)N3CCOCC3)cc2-c2cn(C)c(=O)c3[nH]ccc23)NC1=O (centres unmarked) [Example 33, 2-isopropyl-8-(6-methyl-7-oxo-6,7-dihydro-1H-pyrrolo[2,3-c]pyridin-4-yl)-6-(morpholin-4-ylcarbonyl)-2H-1,4-benzoxazin-3(4H)-one]",≤ 1
4,"CC(C)C1Oc2c(cc(C(=O)N(C)C)cc2-c2cn(C)c(=O)c3[nH]ccc23)NC1=O (centres unmarked) [Example 34, 2-isopropyl-N,N-dimethyl-8-(6-methyl-7-oxo-6,7-dihydro-1H-pyrrolo[2,3-c]pyridin-4-yl)-3-oxo-3,4-dihydro-2H-1,4-benzoxazine-6-carboxamide]",≤ 1
5,"COc1cc2c(c(-c3cn(C)c(=O)c4[nH]ccc34)c1)OC(C1CCCC1)C(=O)N2 (centres unmarked) [Example 35, 2-cyclopentyl-6-methoxy-8-(6-methyl-7-oxo-6,7-dihydro-1H-pyrrolo[2,3-c]pyridin-4-yl)-2H-1,4-benzoxazin-3(4H)-one]",≤ 1
6,"CC(C)C1Oc2c(cc(CO)cc2-c2cn(C)c(=O)c3[nH]ccc23)NC1=O (centres unmarked) [Example 36, 6-(hydroxymethyl)-2-isopropyl-8-(6-methyl-7-oxo-6,7-dihydro-1H-pyrrolo[2,3-c]pyridin-4-yl)-2H-1,4-benzoxazin-3(4H)-one]",≤ 1
7,"COCc1cc2c(c(-c3cn(C)c(=O)c4[nH]ccc34)c1)OC(C(C)C)C(=O)N2 (centres unmarked) [Example 37, 2-isopropyl-6-(methoxymethyl)-8-(6-methyl-7-oxo-6,7-dihydro-1H-pyrrolo[2,3-c]pyridin-4-yl)-2H-1,4-benzoxazin-3(4H)-one]",≤ 1
8,"CC(=O)NCc1cc2c(c(-c3cn(C)c(=O)c4[nH]ccc34)c1)OC(C(C)C)C(=O)N2 (centres unmarked) [Example 40, N-{[2-isopropyl-8-(6-methyl-7-oxo-6,7-dihydro-1H-pyrrolo[2,3-c]pyridin-4-yl)-3-oxo-3,4-dihydro-2H-1,4-benzoxazin-6-yl]methyl}acetamide]",≤ 1
9,"CC(C)C1Oc2c(cc(C(N)=O)cc2-c2cn(C)c(=O)c3[nH]ccc23)NC1=O (centres unmarked) [Example 41, 2-isopropyl-8-(6-methyl-7-oxo-6,7-dihydro-1H-pyrrolo[2,3-c]pyridin-4-yl)-3-oxo-3,4-dihydro-2H-1,4-benzoxazine-6-carboxamide]",≤ 1
10,"COc1cc2c(c(-c3cn(C)c(=O)c4[nH]ncc34)c1)OC(C1CCCC1)C(=O)N2 (centres unmarked) [Example 42, 2-Cyclopentyl-6-methoxy-8-(6-methyl-7-oxo-6,7-dihydro-1H-pyrazolo[3,4-c]pyridin-4-yl)-2H-1,4-benzoxazin-3(4H)-one]",≤ 1
11,"CC(C)C1Oc2c(cc(S(C)(=O)=O)cc2-c2cn(C)c(=O)c3[nH]ccc23)NC1=O (centres unmarked) [Example 44, 2-isopropyl-8-(6-methyl-7-oxo-6,7-dihydro-1H-pyrrolo[2,3-c]pyridin-4-yl)-6-(methylsulfonyl)-2H-1,4-benzoxazin-3(4H)-one]",≤ 1
12,"Cn1cc(-c2cc(S(C)(=O)=O)cc3c2OC(C)(C)C(=O)N3)c2cc[nH]c2c1=O [Example 45, 2,2-dimethyl-8-(6-methyl-7-oxo-6,7-dihydro-1H-pyrrolo[2,3-c]pyridin-4-yl)-6-(methylsulfonyl)-2H-1,4-benzoxazin-3(4H)-one]",≤ 1
13,"CC(C)C1Oc2c(-c3cn(C)c(=O)c4[nH]ccc34)cc(S(C)(=O)=O)cc2N(C)C1=O (centres unmarked) [Example 47, 2-isopropyl-4-methyl-8-(6-methyl-7-oxo-6,7-dihydro-1H-pyrrolo[2,3-c]pyridin-4-yl)-6-(methylsulfonyl)-2H-1,4-benzoxazin-3(4H)-one]",≤ 1
14,"Cn1cc(-c2cc(S(C)(=O)=O)cc3c2OC(CCO)C(=O)N3)c2cc[nH]c2c1=O (centres unmarked) [Example 48, 2-(2-hydroxyethyl)-8-(6-methyl-7-oxo-6,7-dihydro-1H-pyrrolo[2,3-c]pyridin-4-yl)-6-(methylsulfonyl)-2H-1,4-benzoxazin-3(4H)-one]",≤ 1
15,"CC(O)c1cc2c(c(-c3cn(C)c(=O)c4[nH]ccc34)c1)OC(C(C)C)C(=O)N2 (centres unmarked) [Example 50, 6-(1-hydroxyethyl)-2-isopropyl-8-(6-methyl-7-oxo-6,7-dihydro-1H-pyrrolo[2,3-c]pyridin-4-yl)-2H-1,4-benzoxazin-3(4H)-one]",≤ 1
16,"CCS(=O)(=O)c1cc2c(c(-c3cn(C)c(=O)c4[nH]ccc34)c1)OC(C(C)C)C(=O)N2 (centres unmarked) [Example 51, 6-(ethylsulfonyl)-2-isopropyl-8-(6-methyl-7-oxo-6,7-dihydro-1H-pyrrolo[2,3-c]pyridin-4-yl)-2H-1,4-benzoxazin-3(4H)-one]",≤ 1
17,"CC(C)C1Oc2c(cc(S(=O)(=O)C(C)C)cc2-c2cn(C)c(=O)c3[nH]ccc23)NC1=O (centres unmarked) [Example 52, 2-isopropyl-6-(isopropylsulfonyl)-8-(6-methyl-7-oxo-6,7-dihydro-1H-pyrrolo[2,3-c]pyridin-4-yl)-2H-1,4-benzoxazin-3(4H)-one]",≤ 1
18,"CC(C)C1Oc2c(-c3cn(C)c(=O)c4[nH]ccc34)cc(S(C)(=O)=O)cc2N(CC2CC2)C1=O (centres unmarked) [Example 53, 4-(cyclopropylmethyl)-2-isopropyl-8-(6-methyl-7-oxo-7-dihydro-1H-pyrrolo[2,3-c]pyridin-4-yl)-6-(methylsulfonyl)-2H-1,4-benzoxazin-3(4H)-one]",≤ 1
19,"CCN1C(=O)C(C(C)C)Oc2c(-c3cn(C)c(=O)c4[nH]ccc34)cc(S(C)(=O)=O)cc21 (centres unmarked) [Example 54, 4-ethyl-2-isopropyl-8-(6-methyl-7-oxo-6,7-dihydro-1H-pyrrolo[2,3-c]pyridin-4-yl)-6-(methylsulfonyl)-2H-1,4-benzoxazin-3(4H)-one]",≤ 1
20,"CCS(=O)(=O)c1cc(-c2cn(C)c(=O)c3[nH]ccc23)c2c(c1)N(C)C(=O)C(C(C)C)O2 (centres unmarked) [Example 55, 6-(ethylsulfonyl)-2-isopropyl-4-methyl-8-(6-methyl-7-oxo-6,7-dihydro-1H-pyrrolo[2,3-c]pyridin-4-yl)-2H-1,4-benzoxazin-3(4H)-one]",≤ 1
21,"CC(C)C1Oc2c(-c3cn(C)c(=O)c4[nH]ccc34)cc(S(=O)(=O)C(C)C)cc2N(C)C1=O (centres unmarked) [Example 56, 2-isopropyl-6-(isopropylsulfonyl)-4-methyl-8-(6-methyl-7-oxo-6,7-dihydro-1H-pyrrolo[2,3-c]pyridin-4-yl)-2H-1,4-benzoxazin-3(4H)-one]",≤ 1
22,"Cn1cc(-c2cc(S(C)(=O)=O)cc3c2OC2(CC2)C(=O)N3)c2cc[nH]c2c1=O [Example 57, 8-(6-methyl-7-oxo-6,7-dihydro-1H-pyrrolo[2,3-c]pyridin-4-yl)-6-(methylsulfonyl)spiro[1,4-benzoxazine-2,1′-cyclopropan]-3(4H)-one]",≤ 1
23,"Cn1cc(-c2cc(S(C)(=O)=O)cc3c2NC(C)(C)C(=O)N3)c2cc[nH]c2c1=O [Example 58, 3,3-dimethyl-5-(6-methyl-7-oxo-6,7-dihydro-1H-pyrrolo[2,3-c]pyridin-4-yl)-7-(methylsulfonyl)-3,4-dihydroquinoxalin-2(1H)-one]",≤ 1
24,"Cn1cc(-c2cc(S(C)(=O)=O)cc3c2NC2(CCCC2)C(=O)N3)c2cc[nH]c2c1=O [Example 59, 8′-(6-methyl-7-oxo-6,7-dihydro-1H-pyrrolo[2,3-c]pyridin-4-yl)-6′-(methylsulfonyl)-1′,4′-dihydro-3′H-spiro[cyclopentane-1,2′-quinoxalin]-3′-one]",≤ 1
25,"CC(C)[C@@H]1Nc2c(cc(S(C)(=O)=O)cc2-c2cn(C)c(=O)c3[nH]ccc23)NC1=O [Example 60, (3S)-3-isopropyl-5-(6-methyl-7-oxo-6,7-dihydro-1H-pyrrolo[2,3-c]pyridin-4-yl)-7-(methylsulfonyl)-3,4-dihydroquinoxalin-2(1H)-one]",≤ 1
26,"CC(C)[C@H]1Nc2c(cc(S(C)(=O)=O)cc2-c2cn(C)c(=O)c3[nH]ccc23)NC1=O [Example 61, (3R)-3-isopropyl-5-(6-methyl-7-oxo-6,7-dihydro-1H-pyrrolo[2,3-c]pyridin-4-yl)-7-(methylsulfonyl)-3,4-dihydroquinoxalin-2(1H)-one]",≤ 1
27,"Cn1cc(-c2cc(S(C)(=O)=O)cc3c2NC2(CCC2)C(=O)N3)c2cc[nH]c2c1=O [Example 62, 8′-(6-methyl-7-oxo-6,7-dihydro-1H-pyrrolo[2,3-c]pyridin-4-yl)-6′-(methylsulfonyl)-1′,4′-dihydro-3′H-spiro[cyclobutane-1,2′-quinoxalin]-3′-one]",≤ 1
28,"CN1C(=O)C2(CC2)Oc2c(-c3cn(C)c(=O)c4[nH]ccc34)cc(S(C)(=O)=O)cc21 [Example 63, 4-methyl-8-(6-methyl-7-oxo-6,7-dihydro-1H-pyrrolo[2,3-c]pyridin-4-yl)-6-(methylsulfonyl)spiro[1,4-benzoxazine-2,1′-cyclopropan]-3(4H)-one]",≤ 1
29,"Cn1cc(-c2cc(S(C)(=O)=O)cc3c2NC2(CCCCC2)C(=O)N3)c2cc[nH]c2c1=O [Example 64, 8′-(6-methyl-7-oxo-6,7-dihydro-1H-pyrrolo[2,3-c]pyridin-4-yl)-6′-(methylsulfonyl)-1′,4′-dihydro-3′H-spiro[cyclohexane-1,2′-quinoxalin]-3′-one]",≤ 1
